Experimental data published in patent EP4781993A1, “ANTIBACTERIAL COMPOSITION AND ANTIBACTERIAL DRUG” (Shenzhen China Resources Gosun Pharmaceuticals Co., Ltd., priority 2023, dated 2025).

Legend:
[1] = test system: OXA-232 producing Klebsiella pneumoniae; experiment: Broth-microdilution MIC (CLSI M07-A11) against clinical isolates; format: cell-based; settings: for MIC range / MIC50 / MIC90 / Mode: 12 strains; for MIC range / MIC50 / MIC90: MIC = ceftobiprole concentration (groups A2, B2, C2, D2, E2: inhibitor alone); for MIC50 / MIC90: Klebsiella pneumoniae; for Cumulative inhibition rate (%) / Cumulative number of strains / Number of strains: MIC >128 mg/L; for Mode: mode of MIC; for antibacterial activity: verdict in words
From the text: (§1) As recommended by CLSI (Clinical and Laboratory Standards Institute) M07-A11 (2018 edition), the Broth-microdilution method is adopted to determine the minimum inhibitory concentration (MIC) of ceftobiprole and zidebactam against clinical isolates. It should be noted that, in the present disclosure, MIC50 refers to the minimum drug concentration that inhibits the growth of 50% of the tested bacteria, and MIC90 refers to the minimum drug concentration that inhibits the growth of 90% of the tested bacteria.
(§2) Antibacterial drug: ceftobiprole, manufacturer: Shenyang Sanjiu Pharmaceutical, content: 92.1%, batch number: YF/BALP141/000. Zidebactam, manufacturer: Target M01 company, batch number: 149661. Zidebactam, as described above, the English name is Zidebactam, and the chemical name is: (2S,5R)-7-oxo-2-(2-((R)-piperidine-3-carbonyl)hydrazine-1-carbonyl)-1,6-diazabicyclo[3.2.1]octan-6-yl hydrogen sulfate.
(§3) Tested strains: a total of 24 genotypic strains producing KPC or OXA β-lactamase. Specifically, the tested strains include 24 strains of Klebsiella pneumoniae, including 12 KPC-2 producing strains and 12 OXA-232 producing strains.
(§4) Quality control strains: Escherichia coli ATCC 25922, (KPC-2 producing) Klebsiella pneumoniae ATCC BAA-1705, and (NDM-1 producing) Klebsiella pneumoniae ATCC BAA-2146.
(§5) Medium: cation-adjusted Mueller-Hinton broth (CAMHB), a product of BBL Company, USA.
(§6) Inoculum size: Pure isolated colonies were adjusted with normal saline to 0.5 McFarland turbidity. After appropriate dilution, the suspension was added to the wells of a 96-well U-bottom microplate (containing 50 µL antibacterial drug solution). The inoculum size was 5 × 10^5 CFU/mL.
(§7) Culture conditions: air environment, 35°C ± 2°C, 16 to 20 hours.
(§8) Preparation of Antibacterial Drug Solution : Ceftobiprole and zidebactam were taken separately, dissolution and dilution were performed according to the antibacterial drug reference to the CLSI standards and the drug package insert, A1 to A6, a total of 6 groups of antibacterial drug solutions, were prepared, among which, group A1 was the control group containing solely the single agent ceftobiprole, and group A2 was the control group containing solely the single agent zidebactam. Different antibacterial drug solutions with ceftobiprole concentrations ranging from 128 mg/L to 0.06 mg/L were respectively included in groups A1 and A3 to A6, and different antibacterial drug solutions with zidebactam concentrations ranging from 128 mg/L to 0.06 mg/L were included in group A2. The specific concentrations within the range of 128 mg/L to 0.06 mg/L in groups A1 to A6 were respectively 128 mg/L, 64 mg/L, 32 mg/L, 16 mg/L, 8 mg/L, 4 mg/L, 2 mg/L, 1 mg/L, 0.5 mg/L, 0.25 mg/L, 0.125 mg/L, or 0.06 mg/L, respectively. Table 1. Concentrations of ceftobiprole/zidebactam contained in the antibacterial drug solutions of groups A1 to A6
(§9) Experimental results: Currently, there are no established CLSI or EUCAST breakpoints for ceftobiprole/β-lactamase inhibitor. Therefore, the antibacterial activity of ceftobiprole/β-lactamase inhibitor is evaluated in accordance with the standards for ceftobiprole. WHONET 5.6 software is used to perform statistical analysis on the results of antibacterial susceptibility test. The fractional inhibitory concentration index (FIC) for the combination of ceftobiprole and zidebactam is calculated according to Equation (1). FIC index = (MIC of drug A in combination)/(MIC of drug A alone) + (MIC of drug B in combination)/(MIC of drug B alone) [formula]
(§10) In Equation (1), drug A is ceftobiprole, and drug B is zidebactam. […] Table 2. In vitro antibacterial activity of ceftobiprole/zidebactam against the tested bacteria in Example 1 […]

[2] = test system: KPC-2 producing Klebsiella pneumoniae; experiment: as above; format: cell-based; settings: for MIC range / MIC50 / MIC90 / Mode: 12 strains; for MIC range / MIC50 / MIC90: MIC = ceftobiprole concentration (groups A2, B2, C2, D2, E2: inhibitor alone); for MIC50 / MIC90: Klebsiella pneumoniae; for MIC50: read-out: MIC50; for MIC90: read-out: MIC90; for Cumulative inhibition rate (%) / Cumulative number of strains / Number of strains: MIC >128 mg/L; for Mode: mode of MIC; for antibacterial activity: verdict in words
From the text: as §1, §2, §3, §4, §5, §6, §7, §8, §9, §10

Compound	MIC range [1]	MIC50 [1]	MIC90 [1]	Cumulative inhibition rate (%) [1]	Cumulative number of strains [1]	Number of strains [1]	Mode [1]	antibacterial activity [1]	MIC range [2]	MIC50 [2]	MIC90 [2]	Cumulative inhibition rate (%) [2]	Cumulative number of strains [2]	Number of strains [2]	Mode [2]	antibacterial activity [2]
C[n+]1ccn(C[C@@]2(C)[C@H](C(=O)[O-])N3C(=O)C[C@H]3S2(=O)=O)n1 [Group E2, (2S,3S,5R)-3-methyl-3-[(3-methyltriazol-3-ium-1-yl)methyl]-4,4,7-trioxo-4-amino-6-thia-1-azabicyclo[3.2.0]heptane-2-carboxylate]	>128 µg/mL	≥ 128 µg/mL	≥ 128 µg/mL	100%	12	12	>128 mg/L	no antibacterial activity	>128 µg/mL	≥ 128 µg/mL	≥ 128 µg/mL	100%	12	12	>128 mg/L	no antibacterial activity
NCCN[C@H]1CC[C@H](CC(=O)N[C@H]2Cc3cccc(C(=O)O)c3OB2O)CC1 [Group D2, (R)-3-(2-((1r,4R)-4-((2-aminoethyl)amino)cyclohexyl)acetamido)-2-hydroxy-3,4-dihydro-2H-benzo[e][1,2]oxaborinine-8-carboxylic acid]	>128 µg/mL	> 128 µg/mL	> 128 µg/mL	100%	12	12	>128 mg/L	no antibacterial activity	>128 µg/mL	> 128 µg/mL	> 128 µg/mL	100%	12	12	>128 mg/L	no antibacterial activity
